Results from patent publication US9440987B2, “Aromatic ring compound” (TAKEDA PHARMACEUTICAL COMPANY LIMITED, priority 2012, dated 2016).

Legend:
human MCHR1 [1] = biological target: T1, human MCHR1 (Homo sapiens, UniProt Q99705); test: Human MCH receptor 1 (MCHR1) binding inhibitory activity, [125I]-MCH(4-19) binding assay with MCHR1-expressing CHO cellular membrane fraction; conditions: test compound 0.1 μM, human MCHR1-expressing CHO cell membrane, read-out: Binding inhibition rate % (0.1 μM)
T1 construct: expressed in transfected cells; host or cells: CHO cell clone 57 (membrane fraction)
T1 sequence (Q99705 whole entry): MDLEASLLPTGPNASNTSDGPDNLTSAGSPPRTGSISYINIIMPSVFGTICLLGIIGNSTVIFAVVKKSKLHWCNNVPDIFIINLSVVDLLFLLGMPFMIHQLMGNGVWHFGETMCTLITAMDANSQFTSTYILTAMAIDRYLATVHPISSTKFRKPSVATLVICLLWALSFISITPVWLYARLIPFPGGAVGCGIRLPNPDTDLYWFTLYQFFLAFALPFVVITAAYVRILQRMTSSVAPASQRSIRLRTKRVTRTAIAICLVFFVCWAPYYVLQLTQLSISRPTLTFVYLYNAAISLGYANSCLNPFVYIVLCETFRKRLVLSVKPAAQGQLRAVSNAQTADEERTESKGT
Procedure: Using human MCHR1(=SLC-1 receptor)-expressing CHO cell clone 57 described in WO01/82925, MCHR1-expressing CHO cellular membrane fractions were prepared by the following method. […] Homogenate buffer (10 mL, 10 mM NaHCO3, 5 mM EDTA, pH 7.5, 0.5 mM PMSF (phenylmethylsulfonyl fluoride), 20 mg/L leupeptin, 4 mg/L E-64, 1 mg/L pepstatin A) was added to the pellets of the cells and, using Polytron Homogenizer, the mixture was homogenated. The supernatant obtained after centrifugation at 400×g for 10 min was further centrifuged at 100,000×g for 1 hr to give precipitate of the membrane fraction. The precipitate were suspended in 2 mL of assay buffer [20 mM Tris-HCl (pH 7.5), 5 mM EDTA, 0.5 mM PMSF, 20 mg/L leupeptin, 4 mg/L E-64, 1 mg/L pepstatin A]. The membrane fractions were suspended in assay buffer to a protein concentration of 2 mg/mL, and after dispensing, preserved at −80° C. and used upon thawing each time when in use. The MCHR1 ligand binding inhibitory activity of the test compound was determined as follows. An MCHR1-expressing CHO cellular membrane fraction (173 μL) diluted with an assay buffer was dispensed to a 96 well polypropylene plate (3363, Corning). […] Using a treating glass filter plate (GF/C, PerkinElmer) with polyethyleneimine, which had been previously set, the plate was suction-filtered and washed three times with washing buffer (50 mM Tris-HCl buffer pH 7.5). The glass filter plate was dried, MicroScinti0 (PerkinElmer) was added at 25 μL/well, and the resulting radioactivity was measured by TopCount liquid scintillation counter (PerkinElmer). The binding inhibition rate of the test compound was calculated by the following formula.

human MCHR1 [2] = biological target: T1, human MCHR1; test: MCH receptor 1 antagonistic activity, Ca2+ mobilization assay in human MCHR1-expressing CHO cells (clone #4); type: cell-based; conditions: test compound 0.1 μM, ligand MCH(4-19) 2 nM, read-out: Inhibition rate % (0.1 μM)
Procedure: Measurement of MCH Receptor 1 Antagonistic Activity of Test Compound Using Ca^2+ Mobilization Assay
Using an expression vector plasmid introduced with human MCHR1 gene for expression in animal cells, human MCHR1 gene was introduced into CHO cells (CHO dhfr^−) by Lipofectamine LTX (Invitrogen). The cells were cultured in selection MEMα medium [445 mL of MEMα medium without nucleic acid and added with 5 mL of Penicillin-Streptomycin (Invitrogen) and 50 mL of dialyzed fetal bovine serum]. Colony 24 clones grown in the selection medium, which were human MCHR1 gene-expressing CHO cell candidates, were selected. […] In the following test, this human MCHR1-expressing CHO cell (clone #4) was used. An integrated dispensing function fluorometer (CellLux, PerkinElmer) was used for Ca^2+ mobilization assay. The CHO cells were sown in a 96 well plate (type 3904, Corning) with a black wall and clear well bottom at a density of 20000 cells/well, and cultured in an incubator for about 24 hr at 5% CO2, 37° C. The medium was removed, and the cells were washed with phosphate buffered saline (PBS). A Ca^2+ indicator dye reagent (DOJINDO LABORATORIES, Ca screening no-wash kit Fluo4) was added at 100 μL/well, and the dye was allowed to penetrate into the cell for 30 min in an incubator at 5% CO2, 37° C. The plate was set on a plate reader. First, a test compound solution diluted with an assay buffer [10 mM HEPES (pH 7.4), 1× assay buffer containing 0.1% BSA (DOJINDO LABORATORIES, attached to Ca screening no-wash kit Fluo4)] or DMSO solution was added at 50 μL/well, and then ligand MCH (4-19) peptide (final concentration 2 nM) diluted with assay buffer or DMSO was added at 50 μL/well, during which changes in intracellular fluorescence were measured at 2 second intervals. […]
The inhibition rates (%) of test compounds (0.1 μM) as antagonist activity measured using human MCHR1-expressing CHO cells (clone #4) are shown in the following Table 3.

| SMILES | inhibition at 0.1 µM (human MCHR1 [1]) | inhibition at 0.1 µM (human MCHR1 [2]) |
| --- | --- | --- |
| Cn1c([C@H]2C[C@H]2C(C)(C)O)nc2ccc(-n3ccc4oc(-c5ccc(Cl)cc5)cc4c3=O)cc21 (racemic) [Example 4, 2-(4-Chlorophenyl)-5-(2-((1RS,2SR)-2-(2-hydroxypropan-2-yl)cyclopropyl)-1-methyl-1H-benzimidazol-6-yl)furo[3,2-c]pyridin-4(5H)-one] | 91% | – |
| Cc1c(C2CC2)nc2ccc(-n3ccc4oc(-c5ccc(Cl)cc5)cc4c3=O)cn12 [Example 1, 2-(4-Chlorophenyl)-5-(2-cyclopropyl-3-methylimidazo[1,2-a]pyridin-6-yl)furo[3,2-c]pyridin-4(5H)-one] | 100% | 82% |
| Cn1c(C2CC2)nc2ccc(-n3ccc4oc(-c5ccc(Cl)cc5)cc4c3=O)cc21 [Example 2, 2-(4-Chlorophenyl)-5-(2-cyclopropyl-1-methyl-1H-benzimidazol-6-yl)furo[3,2-c]pyridin-4(5H)-one] | 79% | 70% |
| Cc1c(C2CC2)nc2ccc(-n3ccc4oc(-c5ccc(Cl)cn5)cc4c3=O)cn12 [Example 3, 2-(5-Chloropyridin-2-yl)-5-(2-cyclopropyl-3-methylimidazo[1,2-a]pyridin-6-yl)furo[3,2-c]pyridin-4(5H)-one] | 74% | 92% |
